Results from patent publication US20260152751A1, “INTERFERING RNA FOR INHIBITING JAK1 GENE EXPRESSION AND USE THEREOF” (Jenkem Technology Co., Ltd. (BEIJING), priority 2024, published 2026).

Columns and labels:
JAK1 gene = experiment: qPCR of JAK1 expression in HaCaT cells transfected with modified siJAK1; format: cell-based, human; conditions: siRNA 50 nM, 48 h after transfection, JAK1 by qPCR, siNC = 100.00
Description: One day prior to transfection, 293T cells were seeded into a 24-well cell culture plate at 1×10^5 cells/well, and the culture medium was 500 μL of DMEM containing 10% FBS and 1% penicillin-streptomycin. Three replicate wells were made for each group. The culture plate was placed in an incubator with 5% CO2 at 37° C. for 24 h to allow the cells to adhere to the wall. On the day of transfection, the culture medium was changed to 450 μL of DMEM culture medium without antibiotics (containing 10% FBS). The siRNAs were diluted with 25 μL of Opti-MEM culture medium, and the control group was siNC at the same concentration; a Lipofectamine™RNAiMAX transfection reagent (Lip) was diluted with another 25 μL of Opti-MEM culture medium, and the mixture was left to stand at room temperature for 5 min; and the two dilutions were uniformly mixed and left to stand at room temperature for 5 min. 50 μL of the mixed solution described above was added to each well to obtain a final transfection volume of 500 μL, and the working concentration of the siRNA was 50 nM. After the cells were further cultured in an incubator with 5% CO2 at 37° C. for 48 h, the total RNA of the cells was extracted.
1) The RNA was reverse-transcribed into a cDNA template using the All-in-One First-Strand Synthesis MasterMix (LABLEAD, Cat. No.: F0202) kit. The reaction system was established according to Table 2, where all components were mixed uniformly and centrifuged to collect the liquid at the bottom of a tube, and the PCR program was run according to the settings of 37° C. for 2 min, 55° C. for 15 min, and 85° C. for 5 min, thereby giving the cDNA template.
2) The gene expression level was detected using the Taq SYBR® Green qPCR Premix (LABLEAD, Cat. No.: R0202) kit, and the qPCR system was established according to Table 3. All components were mixed uniformly and centrifuged to collect the liquid at the bottom of a tube, and the PCR program was run according to the following settings: • Step1: 95° C. 30 s; • Step2: 95° C. 10 s; • Step3: 60° C. 30 s+Plate Read; • Step4: Go to Step2, 40 times; • Step5: Melt Curve 65 to 95° C., increment 0.5° C., for 5 s+Plate Read.
GAPDH was used as an endogenous reference to detect the relative expression level of JAK1 gene, and the sequences of the primers used are as follows: […]
According to the method described in Example 2, human keratinocyte HaCaT cells were transfected with the modified siJAK1 at an siRNA working concentration of 50 nM. The expression level of JAK1 was detected by qPCR 48 h after the transfection. The controls included siNC and unmodified siJAK1 at the same concentration.

[1] = system: IFN-γ-induced STAT1 phosphorylation; experiment: Western blot of IFN-γ-induced STAT1 phosphorylation in L929 cells; format: cell-based, mouse; conditions: siRNA 50 nM, 48 h, IFN-γ 100 ng/mL 30 min, compared to siNC in Group 3, FIG. 17
Description: Mouse fibroblast L929 cells were seeded into a 6-well cell culture plate at 1×10^5 cells/well, and the culture medium was 2 mL of DMEM containing 10% FBS and 1% penicillin-streptomycin.
The cells were then harvested, and the total cellular proteins were extracted to detect the levels of phosphorylated STAT1 by Western blot.
1) The cells were lysed in an appropriate volume of pre-chilled RIPA lysis solution (supplemented with 1 mM PMSF, R1090, LABLEAD prior to use; containing protease and phosphatase inhibitors) for 3-5 min. The lysates were centrifuged at 14000 g at 4° C. for 5 min. The supernatant was carefully pipetted into a new 1.5 mL centrifuge tube. Protein concentrations were measured using the BCA method (PC0020, Solarbio). The samples were mixed with a loading buffer and incubated in a water bath kettle at 95° C. for 10 min.
2) The protein samples were separated by electrophoresis on 4-12% 12-well gradient gels (P41212, LABLEAD) using compatible electrophoresis buffer. […]
4) The PVDF membrane was trimmed based on the molecular weight of the protein and the marker, and blocked with 5% skim milk in TBST at room temperature for 1 h. […] After the membrane was washed again, chemiluminescent substrate (E1050, E1080, LABLEAD) was added, and signals were captured using the Bio-Red imaging system (ChemiDoc™ XRS+Imager) and analyzed using the accompanying software. […]

Substance: siJAK1-3283-m11: 2′-OMe and 2′-F modified siJAK1-3283; sense strand SEQ ID NO: 51, antisense strand SEQ ID NO: 55 (sense AGAACAUUGUGAAGUACAAUU; antisense UUGUACUUCACAAUGUUCUUU; 2'-OMe and 2'-F modifications; modified_base 20..21 OTHER; thymine; modified_base 1..2 OTHER; 2'-O-methyl; modified_base 3 OTHER; 2'-fluoro; modified_base 4 OTHER; modified_base 5 OTHER; modified_base 6 OTHER; modified_base 7 OTHER; modified_base 8 OTHER; modified_base 9..11 OTHER; modified_base 12 OTHER; modified_base 13 OTHER; modi; modified_base 1..3 OTHER; modified_base 7)
- Relative expression level, Mean value (Mean) (JAK1 gene): 18.37
- Inhibition of IFN-γ-induced STAT1 phosphorylation level by modified siJAK1 (Western blot) [1]: superior inhibitory effects
